The target in one experiment is T1, ACE (Oryctolagus cuniculus, UniProt P12822).
T1 construct: ACE (250 mU/ml purified by lung rabbit, EC 3.4.15.1 SIGMA); purchased SIGMA; host or cells: rabbit lung (tissue-purified)
T1 sequence (P12822 34-1310): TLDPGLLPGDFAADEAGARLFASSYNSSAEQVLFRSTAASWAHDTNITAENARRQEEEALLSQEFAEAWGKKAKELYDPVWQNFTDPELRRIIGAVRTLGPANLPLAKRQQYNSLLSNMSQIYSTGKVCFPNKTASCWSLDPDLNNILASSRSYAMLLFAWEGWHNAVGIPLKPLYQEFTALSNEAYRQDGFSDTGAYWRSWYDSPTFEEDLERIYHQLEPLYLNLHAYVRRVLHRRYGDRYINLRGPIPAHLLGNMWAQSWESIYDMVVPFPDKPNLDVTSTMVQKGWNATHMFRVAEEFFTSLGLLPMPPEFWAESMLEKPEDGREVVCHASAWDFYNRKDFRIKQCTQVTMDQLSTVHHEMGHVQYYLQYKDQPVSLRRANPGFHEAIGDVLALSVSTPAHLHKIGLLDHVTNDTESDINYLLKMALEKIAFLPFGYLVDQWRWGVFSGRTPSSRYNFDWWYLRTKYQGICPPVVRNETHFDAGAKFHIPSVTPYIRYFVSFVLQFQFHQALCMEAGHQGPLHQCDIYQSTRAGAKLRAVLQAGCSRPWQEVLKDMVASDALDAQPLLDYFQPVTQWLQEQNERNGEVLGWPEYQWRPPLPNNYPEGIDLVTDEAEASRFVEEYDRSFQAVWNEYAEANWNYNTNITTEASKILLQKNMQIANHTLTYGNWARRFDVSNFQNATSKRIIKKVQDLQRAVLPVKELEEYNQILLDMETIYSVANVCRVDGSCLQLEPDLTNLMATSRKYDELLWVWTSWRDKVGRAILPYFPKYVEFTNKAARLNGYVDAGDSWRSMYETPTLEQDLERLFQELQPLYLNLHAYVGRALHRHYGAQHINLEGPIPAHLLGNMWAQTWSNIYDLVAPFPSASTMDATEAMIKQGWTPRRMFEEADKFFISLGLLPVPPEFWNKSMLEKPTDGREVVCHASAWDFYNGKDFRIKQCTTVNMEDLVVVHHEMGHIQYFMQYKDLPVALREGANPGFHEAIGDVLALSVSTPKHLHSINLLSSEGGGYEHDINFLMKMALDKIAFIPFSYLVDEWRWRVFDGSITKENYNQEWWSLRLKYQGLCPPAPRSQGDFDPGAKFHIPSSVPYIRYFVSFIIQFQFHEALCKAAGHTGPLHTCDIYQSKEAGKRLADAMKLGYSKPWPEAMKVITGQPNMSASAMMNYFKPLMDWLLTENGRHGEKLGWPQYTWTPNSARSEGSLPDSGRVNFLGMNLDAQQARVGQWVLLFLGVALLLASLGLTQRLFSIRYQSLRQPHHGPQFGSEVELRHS
The experiment is described as follows: In vitro ACE-inhibitory activity (FAPGG substrate, spectrophotometric). The settings on record: ACE purified by lung rabbit, FAPGG 0.8 mM, 37°C. The experiment is classed as biochemical. The method, then: […] of ACE (250 mU/ml purified by lung rabbit, EC 3.4.15.1 SIGMA) were preincubated with 50 µl of the compound of formula I or of the reference compound or related vehicle in thermostated cuvettes at 37°C.
The reaction was started by adding furylacryloylphenylalanylglycylglycine 0.8 mM (FAPGG-SIGMA).
Contemporaneously, by using a Beckman DU-50 spectrophotometer provided with a program for calculating delta A/minutes and regression coefficients of the enzyme kinetics curves, the absorbance at 340 nm was recorded in continuo for 5 minutes.
The percentage of the enzyme inhibition in the preparations treated with the compounds of formula I or with the comparative compounds with respect to the untreated preparations was expressed as IC50 (nM) value.

The target of another experiment is T2, NEP (Rattus norvegicus, UniProt P07861).
T2 sequence (P07861 1-750): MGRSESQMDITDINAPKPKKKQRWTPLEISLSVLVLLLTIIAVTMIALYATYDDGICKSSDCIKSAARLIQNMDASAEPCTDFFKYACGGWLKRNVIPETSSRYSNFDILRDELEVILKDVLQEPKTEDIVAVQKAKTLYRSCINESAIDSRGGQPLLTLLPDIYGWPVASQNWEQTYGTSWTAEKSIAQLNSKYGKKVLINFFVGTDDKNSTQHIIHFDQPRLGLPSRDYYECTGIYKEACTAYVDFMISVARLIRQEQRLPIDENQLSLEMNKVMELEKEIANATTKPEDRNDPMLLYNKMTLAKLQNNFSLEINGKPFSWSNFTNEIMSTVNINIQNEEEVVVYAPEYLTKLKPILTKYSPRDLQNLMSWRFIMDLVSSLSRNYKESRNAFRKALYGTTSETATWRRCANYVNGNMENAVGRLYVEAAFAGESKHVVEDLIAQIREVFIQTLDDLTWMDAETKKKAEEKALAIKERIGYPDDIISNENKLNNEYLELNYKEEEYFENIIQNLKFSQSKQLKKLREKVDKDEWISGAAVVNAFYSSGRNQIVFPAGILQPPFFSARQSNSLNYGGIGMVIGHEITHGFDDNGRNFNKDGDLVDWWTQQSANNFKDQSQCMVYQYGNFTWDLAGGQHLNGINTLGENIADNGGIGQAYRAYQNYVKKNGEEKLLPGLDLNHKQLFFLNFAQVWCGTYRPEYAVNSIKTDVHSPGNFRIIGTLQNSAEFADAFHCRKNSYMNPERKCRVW
Description: In vitro NEP-inhibitory activity in rat kidney cortex membranes ([3H][Leu5]-enkephaline hydrolysis). The experiment is classed as biochemical. Set-up: Kidneys were removed from male Sprague-Dawley rats weighing approximately 300 g; from tissue; host or cells: rat kidney cortex membranes (male Sprague-Dawley). The settings on record: [3H][Leu5]-enkephaline 15 nM, 30°C. As to the method: The NEP-inhibitory activity was evaluated in rat kidney cortex membranes prepared according to the procedure described by T. Maeda et al. in Biochim. Biophys.
Kidneys were removed from male Sprague-Dawley rats weighing approximately 300 g and kept at 4°C.
Kidney cortex was carefully dissected, finely minced and suspended in a homogenization buffer (10 mM sodium phosphate pH 7.4 containing 1 mM MgCl2, 30 mM NaCl, 0.02% NaN3) 1:15 weight/volume.
The tissue was then cold homogenized for 30 seconds using an Ultra-Turrax homogenizer.
The membranes were collected from the buffer/sucrose interface, washed twice with 50 mM TRIS/HCl buffer (pH 7.4) and resuspended into the same buffer for storage in small aliquots at -80°C until use.
The NEP-inhibitory activity was evaluated by using the method described by C.
Aliquots of the membrane suspension prepared as above described (concentration 5 µg/ml of proteins) were preincubated in the presence of an aminopeptidase inhibitor (Bestatin - 1 mM) for 10 minutes at 30°C.
Incubation (20 minutes at 30°C) was stopped by adding HCI 0.1M (100 µl).
The formation of the metabolite [^3H]Tyr-Gly-Gly was quantified by chromatography on polystyrene columns (Porapak Q).
The percentage of inhibition of the metabolite formation in the membrane preparations treated with the compounds of formula I and with the comparative compounds with respect to the untreated membrane preparations was expressed as IC50 (nM) value.

These results are taken from patent publication EP0877740B1, “THIOL DERIVATIVES WITH METALLOPEPTIDASE INHIBITORY ACTIVITY” (ZAMBON GROUP S.p.A., priority 1995, dated 1997).

SMILES strings stand for the structures.

By IC50 is commonly meant the concentration that gives 50% inhibition.

For `O=C(N[C@@H](Cc1ccc(-c2nccs2)cc1)C(=O)O)C(CS)Cc1cccnc1` (single isomer, unassigned) [Compound 27, N-[3-mercapto-2-(3-pyridylmethyl)propionyl]-4-(2-thiazolyl)-L-phenylalanine], the concentration for half-maximal inhibition (IC50) is 9.1 nM against ACE and 17.3 nM on NEP.

`O=C(N[C@@H](Cc1ccc(-c2ccco2)cc1)C(=O)O)[C@@H](CS)Cc1ccccc1` [Compound 18, N-[(2S)-3-mercapto-2-phenylmethylpropionyl]-4-(2-furyl)-L-phenylalanine]: the half-maximal inhibitory concentration (IC50) against ACE and at NEP was 1.8 nM in each case.

Turning to `O=C(N[C@@H](Cc1ccc(-c2cncnc2)cc1)C(=O)O)[C@@H](CS)Cc1ccccc1` [Compound 19, N-[(2S)-3-mercapto-2-phenylmethylpropionyl]-4-(5-pyrimidinyl)-L-phenylalanine], the half-maximal inhibitory concentration (IC50) against ACE was 1.9 nM; against NEP, 1.8 nM.

As for `O=C(N[C@@H](Cc1ccc(-c2nccs2)cc1)C(=O)O)C(CS)Cc1ccco1` (stereo partly drawn) [Compound 32, N-[3-mercapto-2-(2-furyl)methyl-propionyl]-4-(2-thiazolyl)-L-phenylalanine], the IC50 turned out to be 8.6 nM against ACE and 4 nM on NEP.

On to `O=C(N[C@@H](Cc1ccc(-c2cccnc2)cc1)C(=O)O)[C@@H](CS)Cc1ccccc1` [Compound 21, N-[(2S)-3-mercapto-2-phenylmethylpropionyl]-4-(3-pyridyl)-L-phenylalanine], for which the concentration for half-maximal inhibition (IC50) worked out at 1.7 nM at ACE and 2.6 nM on NEP.

For the compound `C[C@H](CS)C(=O)N1CCC[C@H]1C(=O)O` [Captopril, reference compound], the “NEP-inhibitory activity IC50 (nM)” value at NEP is on record as “not active”.

With `O=C(N[C@@H](Cc1ccc(-c2nccs2)cc1)C(=O)O)C(CS)Cc1cccs1` (stereo partly drawn) [Compound 31, N-[3-mercapto-2-(2-thienyl)methyl-proionyl]-4-(2-thiazolyl)-L-phenylalanine], the concentration for half-maximal inhibition (IC50) on ACE turned out to be 8.6 nM; on NEP it was 1.2 nM.

On to `CC(C)CC(CS)C(=O)N[C@@H](Cc1ccc(-c2nccs2)cc1)C(=O)O` (stereo partly drawn) [Compound 28, N-(2-isobutyl-3-mercapto-propionyl)-4-(2-thiazolyl)-L-phenylalanine], for which the concentration for half-maximal inhibition (IC50) was 5.8 nM at ACE and 1.8 nM on NEP.

In the case of `O=C(N[C@@H](Cc1ccc(-c2cnccn2)cc1)C(=O)O)[C@@H](CS)Cc1ccccc1` [Compound 20, N-[(2S)-3-mercapto-2-phenylmethylpropionyl]-4-(2-pyrazinyl)-L-phenylalanine], the half-maximal inhibitory concentration (IC50) against ACE was determined as 1.5 nM; at NEP, 2.5 nM.

`O=C(N[C@@H](Cc1ccc(-c2ccoc2)cc1)C(=O)O)[C@@H](CS)Cc1ccccc1` [Compound 25, N-[(2S)-3-mercapto-2-phenylmethylpropionyl]-4-(3-furyl)-L-phenylalanine]: the IC50 on ACE is 2.4 nM; against NEP, 1 nM.

As to `O=C(N[C@@H](Cc1ccc(-c2ccccn2)cc1)C(=O)O)[C@@H](CS)Cc1ccccc1` [Compound 22, N-[(2S)-3-mercapto-2-phenylmethylpropionyl]-4-(2-pyridyl)-L-phenylalanine], the IC50 against ACE amounted to 1.8 nM; at NEP, 2 nM.

For `O=C(N[C@@H](Cc1ccc(-c2cccs2)cc1)C(=O)O)[C@@H](CS)Cc1ccccc1` [Compound 23, N-[(2S)-3-mercapto-2-phenylmethylpropionyl]-4-(2-thienyl)-L-phenylalanine], the IC50 at ACE amounted to 1.6 nM; at NEP it was 0.6 nM.

As to `COc1cccc(CC(CS)C(=O)N[C@@H](Cc2ccc(-c3nccs3)cc2)C(=O)O)c1` (stereo partly drawn) [Compound 29, N-[3-mercapto-2-(3-methoxyphenyl)methyl-propionyl]-4-(2-thiazolyl)-L-phenylalanine], the IC50 was found to be 4.6 nM at ACE and 9 nM at NEP.

On to `O=C(N[C@@H](Cc1ccc(-c2nccs2)cc1)C(=O)O)C(CS)Cc1ccccc1F` (stereo partly drawn) [Compound 30, N-[3-mercapto-2-(2-fluorophenyl)methyl-propionyl]-4-(2-thiazolyl)-L-phenylalanine], for which the concentration for half-maximal inhibition (IC50) was 10.7 nM on ACE and 11.2 nM against NEP.

Turning to `Cc1cc(CC(CS)C(=O)N[C@@H](Cc2ccc(-c3nccs3)cc2)C(=O)O)on1` (stereo partly drawn) [Compound 33, N-[3-mercapto-2-(3-methyl-5-isoxazolyl)methyl-propionyl]-4-(2-thiazolyl)-L-phenylalanine], the results for the IC50 against ACE and against NEP were 7.9 nM and 4.5 nM, respectively.

`O=C(N[C@@H](Cc1ccc(-c2ccsc2)cc1)C(=O)O)[C@@H](CS)Cc1ccccc1` [Compound 24, N-[(2S)-3-mercapto-2-phenylmethylpropionyl]-4-(3-thienyl)-L-phenylalanine]: the figures for the IC50 on ACE and at NEP were 2.5 nM and 1.3 nM, respectively.
